Experimental data as given in patent US20080274202A1, “Compositions and Method for Brain Specific Targeted Delivery of Therapeutic Agents” (priority 2005, published 2008).

Tested on: HOTCs
Experiment: HOTC maintenance in serum-free media with antibiotic
Type: cell-based
Settings: by 21 DIV, in SFM
Method: HOTCs were prepared and maintained by initial incubation in serum-based media followed by transfer to a serum-free media (SFM) at 4 days in vitro (DIV). The transfer from serum-containing medium to SFM prevented neuronal loss from occurring after two weeks of culture (stability was measured by neuron-specific nuclear protein (NeuN)-based western blots), and prevented glial activation in the HOTCs. SFM contained Neurobasal medium ((96%) from Invitrogen) supplemented to 42 mM glucose, 1 mM glutamine (from Sigma), 2% B27 supplement, 10 μg/mL gentamicin and […] Fungizone (from Invitrogen). […] The SFM was changed twice a week and the HOTCs were incubated at 36° C. with 5% CO2-balance air. Slices were maintained to 21 DIV to allow cultures to mature, and used from 21-30 DIV.

With penicillin the “CA3 field potentials from dentate gyrus stimulation” value was “no CA3 field potentials were seen” and the “pyramidal cell survival in HOTCs” value was “most pyramidal cells were dead”.
